Measured values: patent US20240075004A1, “VERY-LONG-CHAIN POLYUNSATURATED FATTY ACIDS, ELOVANOID HYDROXYLATED DERIVATIVES, AND METHODS OF USE” (The Board of Supervisors of Louisiana State University and …, priority 2020, published 2024)

Legend:
[1] = system: degenerating neurons of hypothalamus; assay: Fluoro-Jade B staining of organotypic slices of hypothalamus; type: cell-based; conditions: 500 nM, 48 h incubation, adult obese diabetic db/db mice
Text: Fluoro-Jade b (F-Jb) stains degenerating neurons.

p16INK4a = p16INK4a western blots of RPE/Choroid after subretinal OAβ injection; type: in vivo, C57BL/6J WT mice; conditions: elevated by OAβ injection; subretinal co-injection 200 ng with 10 μM OAβ, topical drops 200 nM twice a day; day 7
Procedure: All animal experiments were performed according to ARVO Statement for the Use of Animals in Ophthalmic and Vision Research, and the protocol was approved by LSU Health New Orleans' Institutional Animal Care and Use Committee (IACUC). 6-month-old 5×FAD mice (stock number: 34848-JAX, The Jackson Laboratory, Bar Harbor, ME, USA), co-overexpress FAD mutant forms of human amyloid precursor protein (the Swedish mutation: K670N, M671L; the Florida mutation: I716V; and the London mutation: V7171) and presenilin 1 (PS1, encoded by Psen1: M146L, L286V) transgenes under transcriptional control of the neuron-specific mouse Thy1 promoter. 5×FAD mice were hemizygotes with respect to the transgenes and non-transgenic WT littermates. Genotyping was performed by PCR of tail DNA. All analyses were carried out blind with respect to the mice genotype. For the subretinal injection, 6-month-old C57BL/6J mice were anesthetized by an intraperitoneal injection of ketamine/xylazine, pupils dilated with 1.0% tropicamide (Akorn, IL, USA); and 0.5% Proparacaine Hydrochloride (Akorn) was applied for topical anesthesia. […]
Samples were lysed by RIPA buffer and protein determined by Bradford assay (Bio-Rad, Hercules, CA, USA). […] Densitometry data were statistically analyzed at 95% confidence level.

RPE and PRC = assay: Subretinal injection of OAβ in WT mice: fundus/OCT and ZO-1 whole flat mount of RPE; type: in vivo, C57BL/6J WT mice; conditions: for PRC degeneration (fundus, OCT): ELV injected alone (200 ng subretinal), six-month-old WT mice, 7 days; for RPE morphology (ZO-1 flat mount) / protection of PRC (OCT, PRC layer thickness): co-injected with OAβ, followed by topical application during 7 days
Procedure: All animal experiments were performed according to ARVO Statement for the Use of Animals in Ophthalmic and Vision Research, and the protocol was approved by LSU Health New Orleans' Institutional Animal Care and Use Committee (IACUC). 6-month-old 5×FAD mice (stock number: 34848-JAX, The Jackson Laboratory, Bar Harbor, ME, USA), co-overexpress FAD mutant forms of human amyloid precursor protein (the Swedish mutation: K670N, M671L; the Florida mutation: I716V; and the London mutation: V7171) and presenilin 1 (PS1, encoded by Psen1: M146L, L286V) transgenes under transcriptional control of the neuron-specific mouse Thy1 promoter. 5×FAD mice were hemizygotes with respect to the transgenes and non-transgenic WT littermates. Genotyping was performed by PCR of tail DNA. All analyses were carried out blind with respect to the mice genotype. For the subretinal injection, 6-month-old C57BL/6J mice were anesthetized by an intraperitoneal injection of ketamine/xylazine, pupils dilated with 1.0% tropicamide (Akorn, IL, USA); and 0.5% Proparacaine Hydrochloride (Akorn) was applied for topical anesthesia. Eyes were punctured with a 30-gauge needle between the corneoscleral junction and the ora serrata into the vitreous cavity without disturbing the lens. Compounds were delivered to the subretinal region using a 33-gauge blunt needle attached to a 5 μl Hamilton syringe (Hamilton Company, Reno, NV, USA) under a dissecting microscope. Non-injected mice were used as negative control while the PBS injected mice were used for sham. The injection volume was 2 μl containing PBS, 10 μM of OAβ, 10 μM of OAβ+200 ng ELV-N-32, 200 ng ELV-N-32 alone, 10 μM of OAβ+200 ng ELV-N-34 or 200 ng ELV-N-34 alone (n=12/group). All groups received topical drops: PBS only or ELV-N-32 (200 nM) or ELV-N-34 (200 nM), twice a day for 3 or 7 days.
For the whole mount RPE staining, eyeballs were enucleated and pre-fixed in 4% PFA for 15 min. Then the eye cup containing RPE sheet were fixed in 4% PFA for 30 min, washed in PBS 3× following the blocking step for 1 h at room temperature. The immunostaining was performed by incubating primary antibody (ZO-1) for 48 h at 4° C. Then the eye cups were washed 3× with PBS and incubated with the secondary antibody for 12 h at 4° C. The primary human RPE cells as well as mouse eye cups were embedded in ProLong™ Gold Antifade Mounting medium (Thermo Fisher Scientific) between two glass coverslips. Pictures were taken with Olympus FV1200 microscope (Olympus, Japan). Images were analyzed by software ImageJ (rsb.info.nih.gov/ij/).
7 days post-injection, mice were anesthetized with ip ketamine/xylazine, pupil dilated by topical 1.0% tropicamide and placed in a custom-built holder for OCT imaging (body temperature maintained at 38° C. with a heat pad). Retinas were imaged along the horizontal meridian through the optic nerve head using a Heidelberg Spectralis HRA OCT system (Heidelberg Engineering, Heidelberg, Germany). Axial resolution is […]. The raw OCT B-scans cross-sectional images were exported with the scale in m and opened in ImageJ (http//imagej.nih.gov/ij). The PRC layer thickness was defined as the width from the tip of the outer nuclear layer, right after the outer plexiform layer, to the outer segments of PRC. Three measurements were made on the same scan and averaged. Mean and standard error of the mean (SEM) were calculated (n=4/group). Students' T-test was used to calculate statistical significance and a P-value less than 0.05 was considered significant.

human RPE cells = assay: Oxidative-stress and Erastin induced cell death in human RPE cells; type: cell-based
[2] = system: pro-inflammatory transcriptome and pro-homeostatic pathways in RPE single-cells; assay: UOS transcriptome in RPE single-cells; type: cell-based; conditions: 96 per sample
Text: Dots in box plots represent expression of the gene for a single RPEC (total of 96 per sample). P<0.001 (***), P<0.01 (**), One-way Anova, with Post-Hoc Tukey HSD test for multiple comparisons.

SMILES | Fluoro-Jade b (F-Jb) signal (neuroprotection) [1] | expression of the key senescence marker p16INK4a (western blots of RPE/Choroid) (p16INK4a) | PRC degeneration (fundus, OCT) (RPE and PRC) | RPE morphology (ZO-1 flat mount) (RPE and PRC) | protection of PRC (OCT, PRC layer thickness) (RPE and PRC) | oxidative-stress and Erastin induced cell deaths (human RPE cells) | UOS up-regulation of pro-inflammatory transcriptome and down-regulation of pro-homeostatic pathways [2]
CC/C=C\C[C@H](O)\C=C/C=C/C=C/[C@H](O)C/C=C\C/C=C\CCCCCCCCCCCCCCC(=O)O [ELV-N-34] | decrease of F-Jb signal | down regulated | did not yield PRC degeneration | restoration of RPE morphology | protection of PRC | – | –
CC/C=C\C[C@H](O)\C=C/C=C/C=C/[C@H](O)C/C=C\C/C=C\CCCCCCCCCCCCC(=O)O [ELV-N-32] | – | down regulated | did not yield PRC degeneration | restoration of RPE morphology | protection of PRC | counteracted | suppress these changes
